{
  "source": "patent US20040072753A1",
  "about": "“Peptides for use in the treatment of alzheimer's disease” (priority 2000, published 2004)",
  "key": {"[1]": {"target": "biotinylated Aβ 1-42 (Homo sapiens, UniProt P05067)", "sequence (P05067 672-713 limits assumed)": "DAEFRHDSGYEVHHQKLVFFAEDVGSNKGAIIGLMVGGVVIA", "assay": "Binding of biotinylated Aβ 1-42 to CAβBP or EAβBP coated plates (ELISA, Scatchard)", "conditions": "biotinylated peptide 200 pM", "experimental": "After washing to remove unbound material, an alkaline phosphatase polymer-streptavidin conjugate (Sigma, Dorset, UK) was added and incubated at 37° C. for 2 hours. After washing to remove unbound material, p-nitrophenylphosphate substrate was added and absorbance at 405 nm determined."}, "[2]": {"target": "biotinylated Aβ 12-28 (Homo sapiens, UniProt P05067)", "assay": "Binding of biotinylated Aβ 12-28 to CAβBP or EAβBP coated plates (ELISA)", "conditions": "biotinylated peptide 200 pM", "experimental": "Biotinylated Aβ1-42, Aβ12-28 and Aβ 25-35 (from SEQ ID NO. 2) were prepared using a LinKit-Biolink kit (ISL, Paignton, UK). ELISA plates were coated with CAβBP (catalase residues 400409) or EAβBD (ERAB residues 99-108) (1 μg ml^−1) in carbonate buffer and unoccupied sites blocked with 5% (w/v) dried milk. Biotinylated peptides (200 pM) were incubated alone, with control peptides or with unlabelled Aβ peptides in PBS (containing 0.1% BSA and 0.05% Tween-20) at 37° C. for 4 hours. After washing to remove unbound material, an alkaline phosphatase polymer-streptavidin conjugate (Sigma, Dorset, UK) was added and incubated at 37° C. for 2 hours. After washing to remove unbound material, p-nitrophenylphosphate substrate was added and absorbance at 405 nm determined. Affinity constants were determined by incubating catalase or CAβBP coated plates with biotinylated peptides (200 pM) plus Aβ peptides over a range of concentrations (0-100 nM) and detection of bound peptides was carried out by ELISA."}, "[3]": {"target": "T1, catalase EC 1.11.1.6 from human erythrocytes (Homo sapiens, UniProt P04040)", "T1 construct": "catalase EC 1.11.1.6 from human erythrocytes (Sigma, Dorset, UK) was used; purchased Sigma, Dorset, UK; host or cells: human erythrocytes", "T1 sequence (P04040 2-527 limits assumed)": "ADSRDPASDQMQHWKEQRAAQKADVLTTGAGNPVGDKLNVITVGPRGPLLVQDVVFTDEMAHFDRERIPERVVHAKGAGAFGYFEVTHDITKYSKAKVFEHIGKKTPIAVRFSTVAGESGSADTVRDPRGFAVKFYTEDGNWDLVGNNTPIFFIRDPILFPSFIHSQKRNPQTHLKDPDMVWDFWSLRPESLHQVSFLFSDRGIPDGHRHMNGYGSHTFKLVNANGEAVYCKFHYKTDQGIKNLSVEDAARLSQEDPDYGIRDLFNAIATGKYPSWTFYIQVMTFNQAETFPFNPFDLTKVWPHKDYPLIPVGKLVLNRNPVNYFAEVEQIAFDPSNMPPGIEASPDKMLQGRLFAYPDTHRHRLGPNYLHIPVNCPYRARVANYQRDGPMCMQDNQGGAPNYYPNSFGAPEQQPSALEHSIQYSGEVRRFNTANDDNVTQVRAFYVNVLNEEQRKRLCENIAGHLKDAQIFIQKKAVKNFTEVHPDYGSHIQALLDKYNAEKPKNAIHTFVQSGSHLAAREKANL", "assay": "Catalase enzyme activity, inhibition by Aβ peptides", "format": "biochemical", "conditions": "test peptides 2 μM", "experimental": "For catalase activity catalase EC 1.11.1.6 from human erythrocytes (Sigma, Dorset, UK) was used for all incubation experiments. Activity of Catalase (5kU I^−1) incubated with test peptides (2 μM) was determined after incubation in 60 mM sodium-potassium phosphate buffer at 37° C. in a total volume of 100 μl. After incubation catalase activity was determined by mixing 50 μl sample with 50 μl substrate (6.5 μmol H2O2 in phosphate buffer) for 60 secs, adding 100 μl of 32.4 mM ammonium molybdate and measurement of absorbance change at 405 nm. Catalase activity was calculated from a standard curve (0-10OkU I^−1) using purified human catalase of known activity (Milton, Biochem. J. 344: 293-296 (1999))."}, "[4]": {"tested_on": "SP2/0-Ag-14 mouse myeloma cells", "assay": "Cytotoxicity of Aβ peptides, trypan blue dye exclusion", "format": "cell-based", "conditions": "test peptides 20 μM, 24 hours", "experimental": "SP2/0-Ag-14 mouse myeloma cells were maintained in RPMI 1640 medium containing 10% fetal calf serum at 37° C. in a 5% CO2 humidified atmosphere. For cytotoxicity experiments 2×1 05 cells were plated in 24 well dishes in 1 ml PBS containing 0.1% BSA and test peptides (20 μM) for 24 hours. Cell viability was determined by trypan blue dye exclusion with at least 100 cells counted per well (Milton, Biochem. J. 344: 293-296 (1999))."}, "[5]": {"target": "recombinant human cdc2 (Homo sapiens, UniProt P06493)", "sequence (P06493 whole entry)": "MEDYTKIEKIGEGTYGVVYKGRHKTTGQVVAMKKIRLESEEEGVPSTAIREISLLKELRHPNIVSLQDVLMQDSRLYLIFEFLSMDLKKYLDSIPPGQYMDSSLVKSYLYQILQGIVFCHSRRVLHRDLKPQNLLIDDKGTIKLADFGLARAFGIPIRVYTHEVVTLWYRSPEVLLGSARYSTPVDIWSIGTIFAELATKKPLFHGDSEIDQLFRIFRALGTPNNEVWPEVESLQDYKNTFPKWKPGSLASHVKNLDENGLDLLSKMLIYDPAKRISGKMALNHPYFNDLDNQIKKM", "assay": "Binding of biotinylated Aβ peptides to recombinant human cdc2 coated plates (ELISA)", "conditions": "biotinylated peptide 200 pM, 37° C. 4 hours", "experimental": "(§1) After washing to remove unbound material, an alkaline phosphatase polymer-streptavidin conjugate (Sigma, Dorset, UK) was added and incubated at 37° C. for 2 hours."}, "[6]": {"target": "T2, recombinant p34-cdc2/cyclin B1 (Homo sapiens, UniProt P06493)", "T2 construct": "purchased Promega, UK", "T2 sequence (P06493 whole entry)": "as above", "T2 sequence (P14635 whole entry partner)": "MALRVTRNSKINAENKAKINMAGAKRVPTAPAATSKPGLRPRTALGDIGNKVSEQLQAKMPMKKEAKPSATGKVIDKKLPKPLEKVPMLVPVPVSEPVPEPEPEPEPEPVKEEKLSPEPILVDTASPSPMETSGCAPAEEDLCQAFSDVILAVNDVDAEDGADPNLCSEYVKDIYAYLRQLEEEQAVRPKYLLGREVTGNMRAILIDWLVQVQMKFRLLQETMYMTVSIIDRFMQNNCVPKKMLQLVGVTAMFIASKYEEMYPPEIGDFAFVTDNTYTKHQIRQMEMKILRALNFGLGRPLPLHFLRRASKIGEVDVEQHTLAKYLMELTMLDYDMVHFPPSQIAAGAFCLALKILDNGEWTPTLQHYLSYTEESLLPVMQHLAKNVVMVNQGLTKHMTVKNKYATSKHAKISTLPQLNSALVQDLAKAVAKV", "assay": "Phosphorylation of biotinylated Aβ peptides by recombinant p34-cdc2/cyclin B1 (32P incorporation)", "format": "biochemical", "conditions": "25 μM biotinylated peptide, 10 min at 30° C.", "source_text": "(§2) The membrane was washed four times in 2 M NaCl, followed by four times in 2 M NaCl containing 1% (v/v) H3PO4 and finally twice in deionized H2O to remove unbound material."}, "[7]": {"target": "recombinant human cyclin B1 (Homo sapiens, UniProt P14635)", "sequence (P14635 whole entry)": "as the sequence (P14635 whole entry partner) above", "assay": "Binding of biotinylated Aβ peptides to cyclin B1 coated plates (ELISA)", "conditions": "biotinylated peptide", "experimental": "as §1\nCyclins are co-factors for cdc2 which are required for enzyme activity. These proteins also contain substrate recognition sequences which may play a role in the recruitment of substrate molecules to the active cdc2/cyclin complex. The recombinant cdc2/cyclin enzyme complex used in the above phosphorylation experiments contained cyclin B1. […] Binding assays as described above using cyclin B1 coated plates were carried out."}, "[8]": {"target": "T3, cdc2/cyclin B1 (Homo sapiens, UniProt P06493+P14635)", "T3 construct": "purchased Promega, UK", "T3 sequence (P06493 whole entry)": "as the sequence (P06493 whole entry) above", "T3 sequence (P14635 whole entry)": "as the sequence (P14635 whole entry partner) above", "assay": "cdc2/cyclin B1 phosphorylation of biotinylated histone H1 substrate peptide", "format": "biochemical", "source_text": "as §2\nSince Aβ binds to both the cdc2 and cyclin B1 components of the active enzyme it is possible that Aβ modulates the activity of the kinase."}},
  "note": "Where a SMILES comes first, the peptide text is derived from it.",
  "data": [
    {"compound": "CC(C)C[C@H](NC(=O)[C@H](CC(N)=O)NC(=O)[C@H](Cc1ccc(O)cc1)NC(=O)[C@@H](NC(=O)[C@@H](N)CCCCN)[C@@H](C)O)C(=O)N[C@@H](CCCCN)C(=O)N[C@@H](CCCCN)C(=O)NCC(=O)N[C@@H](CCC(N)=O)C(=O)N[C@H](C(=O)O)[C@@H](C)O", "note": "[EAβBP] (H-KTYNLKKGQT-OH; N-terminus and C-terminus assumed)", "values": [
      {"measurement": "binding of biotinylated Aβ 1-42", "setting": "[1]", "value": "specifically bound"},
      {"measurement": "binding of biotinylated Aβ 12-28", "setting": "[2]", "value": "specifically bound"},
      {"measurement": "block of the inhibition of catalase enzyme activity by Aβ 1-42", "setting": "[3]", "value": "no effect"},
      {"measurement": "block of the cytotoxicity of Aβ 1-42", "setting": "[4]", "value": "able to block"},
      {"measurement": "block of the cytotoxicity of Aβ fragments containing residues 17-35", "setting": "[4]", "value": "able to block"}
    ]},
    {"compound": "Aβ 25-35: functional neurotoxic domain fragment of Aβ (GSNKGAIIGLM)", "values": [
      {"measurement": "binding to human cdc2", "setting": "[5]", "value": "bound"},
      {"measurement": "phosphorylation by cdc2 (incorporation of 32P from γ32P-ATP)", "setting": "[6]", "value": "incorporated"},
      {"measurement": "binding to cyclin B1", "setting": "[7]", "value": "bound"},
      {"measurement": "effect on phosphorylation of the H1 peptide by cdc2/cyclin B1", "setting": "[8]", "value": "increased"}
    ]}
  ]
}
